Consider one compound from patent US6300347A, “2-substituted 4,5-diaryl imidazoles” (Novartis AG, priority 1997, dated 2001).

The structures appear in SMILES notation.

A word on the IC50: it is the concentration that gives 50% inhibition.

Assay [1] deals with T1, p38 MAP kinase (Mus musculus, UniProt P47811).
T1 construct: full length murine p38 MAP kinase; His tag; made in house; host or cells: E. coli
The assay can be described thus: p38 MAP kinase Assay (GST-ATF-2 phosphorylation, His-p38 MAP kinase). It counts as biochemical, murine. As to conditions: ATP 120 μM; substrate GST-ATF-2; 1 h at 37° C; read-out: IC50 for p38 MAP kinase inhibition.
Protocol: The substrate (GST-ATF-2; a fusion protein comprising amino acids 1-109 of ATF-2 and the GST protein obtained by expression in E. coli) is coated onto the wells of microtiter plates (50 μl/well; 1 μg/ml in PBS/0.02% Na azide) overnight at 4° C. The following day, the microtiter plates are washed four times with PBS/0.5% Tween 20/0.02% Na azide and are blocked with PBS/2% BSA/0.02% Na Azide for 1 h at 37° C. Plates are washed again 4 times with PBS/0.5% Tween 20/0.02% Na azide. The kinase cascade reaction is then started by adding the following reactants in 10 μl aliquots to a final reaction volume of 50 μl.
1. Agents of the Invention titrated from 10 to 0.001 μM in 10-fold dilutions or solvent (DMSO) or H2 O.
2. Kinase buffer (5×); pH 7.4; 125 mM Hepes (Stock at 1M; Gibco #15630-056). […]
After 1 h at 37° C. the kinase reaction is terminated by washing the plates four times as previously described. Phosphorylated GST-ATF-2 is then detected by adding: […]
After step 1,2 and 3 the microtiter plates are washed four times with PBS/0.5% Tween 20/0.02% Na azide. After step 4, the plates are read in a Bio-Rad microplate reader in a dual wavelength mode (measurement filter 405 nm and reference filter 490 nm). The background value (without ATP) is subtracted and IC50 values are calculated using the Origin computer program (4 parameter logistic function).

The test system of assay [2] is TNF-α release from hPBMCs. The assay can be described thus: Assay for Inhibition of TNF-α release from hPBMCs. The class given is cell-based. As to conditions: Homo sapiens, 3 h, IFNg (100 U/ml) and LPS, three hours, TNF-α by ELISA, read-out: IC50, suppression of TNF release.
Protocol: Human peripheral blood mononuclear cells (hPBMCs) are prepared from the peripheral blood of healthy volunteers using ficoll-hypaque density separation accordinc to the method of Hansel et al., J. Imm. […] Cells are incubated with serial dilutions of the test compounds for 30 minutes at 37° C. prior to the addition of IFNg (100 U/ml) and LPS (5 mg/ml) and subsequently further incubated for three hours. Incubation is terminated by centrifugation at 1400 RPM for 10 min. TNF-α in the supernatant is measured using a commercial ELISA (Innotest hTNFa, available from Innogenetics N.V., Zwijnaarde, Belium). Agents of the Invention are tested at concentrations of from 0 to 10 mM.
Assay [3] has as its system TNF-α. Nature of the assay: Assay for Inhibition of TNF-α Production in LPS Stimulated Mice. To be noted: LPS 20 mg/kg i.v.; OF1 mice (female); plasma TNF 1 hour after LPS. It counts as in vivo. The protocol: Assay for Inhibition of TNF-α Production in LPS Stimulated Mice
Injection of lipopolysaccharide (LPS) induces a rapid release of soluble tumour necrosis factor (TNF-α) into the periphery. This model is be used to analyse prospective blockers of TNF release in vivo.
LPS (20 mg/kg) is injected i.v. into OF1 mice (female, 8 week old). One (1) hour later blood is withdrawn from the animals and TNF levels are analysed in the plasma by an ELISA method using an antibody to TNF-α. […] Compounds to be evaluated are given either orally or s.c. 1 to 4 hours prior to the LPS injection. Inhibition of LPS-induced TNF-release is taken as the readout.

T1 sequence (P47811 whole entry): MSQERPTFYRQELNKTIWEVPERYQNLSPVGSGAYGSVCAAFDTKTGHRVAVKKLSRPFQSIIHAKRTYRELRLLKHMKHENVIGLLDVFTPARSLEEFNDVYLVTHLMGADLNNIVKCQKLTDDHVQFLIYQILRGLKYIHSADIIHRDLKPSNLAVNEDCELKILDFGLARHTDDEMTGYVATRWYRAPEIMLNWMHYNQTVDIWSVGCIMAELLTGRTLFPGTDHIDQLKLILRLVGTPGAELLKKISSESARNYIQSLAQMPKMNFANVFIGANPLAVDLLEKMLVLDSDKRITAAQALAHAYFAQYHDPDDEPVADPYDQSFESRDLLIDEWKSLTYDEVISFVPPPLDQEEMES

Turning to `Nc1nc(N)c(F)c(-c2nc(-c3ccc(F)cc3)c(-c3ccncc3)[nH]2)c1F` [Example 17, 4-(4-Fluorophenyl)-5-(4-pyridyl) 2-(2,6-diamino-3,5-difluoropyridinyl)imidazole], the half-maximal inhibitory concentration (IC50) in assay [1] is roughly 10 nM; in assay [2] it was roughly 90 nM. In assay [3], the “inhibition of TNF production” value is on record as “about 80%”.
